The values below come from patent publication US20230190707A1, “COMPOSITIONS AND METHODS FOR ENHANCING CANCER IMMUNOTHERAPY” (FRED HUTCHINSON CANCER CENTER, priority 2020, published 2023).

One series has as its system OT-1 T cells. Kind of series: LAMP-1 T cell degranulation assay. The conditions noted are these: higher doses. The format is cell-based, mouse. As to the method: OT-1 cells were generated as described for the cytotoxicity assay and incubated with ovalbumin-expressing tumor cell lines (pre-treated overnight with IFNγ 100 U/mL to upregulate cell-surface MHC I) in the presence of DMSO or varying concentrations of splicing modulator drugs as indicated, in the presence of LAMP-1 antibody for 5-6 hours under standard incubator conditions. After the first hour of incubation, BD GolgiPlug™ (brefeldin A) and BD GolgiStop™ (monensin) was added at […] respectively into cells. At the end of incubation, cells were washed and stained for cell surface markers prior to standard flow cytometry.

Series [1] relates to 501-MEL, A375, and SK-MEL-239. Put plainly: RNA-seq splicing analysis, human tumor cell lines. The format is cell-based. The settings on record: identical treatment. As to the method: (§1) Bulk lung and colon were homogenized using a Qiagen TissueRuptor. For all tissues and cell types, RNA was extracted using an RNeasy kit (Qiagen, Frederick, Md.) and quantified using a NanoDrop 8000 (ThermoFisher Scientific). A minimum of 500 ng of high-quality RNA (as determined by Agilent Bioanalyzer) per sample or replicate was used for library preparation. Poly(A)-selected, strand-specific (dUTP method) Illumina libraries were prepared with a modified TruSeq protocol and sequenced on the Illumina HiSeq 2000 (˜100M 2×101 bp paired-end reads per sample or replicate).
RNA-seq analysis was performed as previously described (Dvinge, H., et al. (2014). Sample processing obscures cancer-specific alterations in leukemic transcriptomes. Proc Natl Acad Sci USA 111, 16802-16807, incorporated herein by reference in its entirety). […] Aligned reads from these two mapping steps were merged to generate final BAM files for all subsequent analyses.
MISO v2.0 was used to quantify all expression of isoforms arising from exon skipping (cassette exons), competing 5′ splice site selection, competing 3′ splice site selection, and annotated intron retention. […]

Series [2] deals with bone marrow hematopoietic stem and progenitor cells. Kind of series: M3434 methylcellulose colony assay. In kind it is cell-based, mouse. As to the method: 25,000 red blood cell-lysed bone marrow mononuclear cells from C57BL/6 mice were plated in duplicates or triplicates in each well of a non-tissue-culture treated 6 well plate with M3434 methylcellulose media in the presence of splicing drugs at the indicated concentrations as per manufacturer's instructions (StemCell Technologies, Cat. 03434) and incubated for seven days prior to quantification of colonies by manual microscopy.

A further series relates to CD5^+ splenic T cells. Kind of series: Anti-CD3/CD28 T cell activation and proliferation (CFSE). In kind it is cell-based, mouse. As to the method:
Cell lines were grown with half-log10 concentrations of the indicated drug in 4 to 8 technical replicates under standard conditions until the control condition (DMSO or vehicle) was confluent by microscopy. For tumor cell lines, viable cells were quantified via the CellTiter-Glo® assay (Promega Cat. G7573) as per manufacturer instructions. For the ex vivo proliferation of T cells, viable cells were instead quantified via flow cytometry using counting beads. The percentage or number of viable cells with drug treatment was calculated relative to DMSO control (as 100%). […] For absolute cell number, Annexin V+, CD25+, and PD1+ flow cytometry data presented in Figure S4, dose-response models and IC50 values were computed using the R language's dre package (Ritz, C., et al. (2015). Dose-Response Analysis Using R. PLoS One 10, e0146021).
Plates were coated with 10 μg/mL anti-CD3 (clone 145-2C11, Biolegend Cat. 100302) and 2 μg/mL anti-CD28 (clone 37.51, Biolegend Cat. 102102) in PBS overnight at 4° C. and washed twice with cold PBS prior to use. CFSE-labeled CD5-selected splenic T cells from naïve C57BL/6J mice were obtained identically as for adoptive cell transfer, and 5×10^4 cells incubated with coated plates in the presence of splicing inhibitor drugs at the indicated concentrations, followed by analysis by standard flow cytometry on day 3. Of note, for RNA-seq analyses, T cells were not labeled with CFSE, and underwent activation for 4 days (96 hours) in the presence of various splicing modulator drugs to harmonize experimental conditions with RNA-seq analyses of tumors treated with splicing inhibitors. For the RNA-seq experiments only, T cells in all conditions were also incubated with IL-2 at 50 U/mL to maximize viability and yield.

Series [3] deals with B16-F10, MB49, MC38, and CT26. Put plainly: RNA-seq splicing analysis, mouse tumor cell lines. In kind it is cell-based. The conditions noted are these: doses that did not affect tumor cell growth in vitro. On the procedure:
Unless otherwise specified, cell lines were treated with splicing inhibitors at the indicated concentrations for 96 hours in vitro, harvested and washed three times with PBS in excess to remove all drug, and then used for downstream analyses and/or subsequent studies, including phenotyping, RNA-seq analyses, continued growth in vitro, or tumor challenge in vivo into syngeneic animals.
as §1
RNA-seq analysis was performed as previously described (Dvinge, H., et al. (2014). Sample processing obscures cancer-specific alterations in leukemic transcriptomes. Proc Natl Acad Sci USA 111, 16802-16807, incorporated herein by reference in its entirety). […] Aligned reads from these two mapping steps were merged to generate final BAM files for all subsequent analyses. […]

Series [4] in a line: Histologic evaluation of immune-related tissue toxicities. In kind it is in vivo, mouse. The conditions noted are these: tumor-bearing mice. On the procedure: Animal tissues were fixed in 4% paraformaldehyde, decalcified (for bone), dehydrated and paraffin embedded. Blocks were sectioned and stained with hematoxylin and eosin or anti-CD8. Images were acquired using an Axio Observer A1 microscope (Carl Zeiss, Oberkochen, Germany) or scanned using an Aperio AT slide scanner (Leica Biosystems, Buffalo Grove, Ill.). Automated quantification of infiltrating CD8^+ T cells was performed using HALO software (Indica labs, Albuquerque, N. Mex.). Pathologic evaluation of immune-related tissue toxicities was performed in a blinded fashion by one of the authors who is a trained pathologist (Ben Durham, MD).

Structures are written as SMILES. Read-outs that look alike come from different tables or passages of the source.

For the molecule `CC(C)Oc1ccc(-c2c[nH]cc2CN(C)CCN)cc1` [MS-023], in the series with OT-1 T cells, the “ability of OT-1 T cells to degranulate intracellular cytolytic molecules” value is reported as “did not inhibit”. In addition, the “splicing changes in human cancer cells” value in series [1] is “stereotyped and pervasive splicing changes”. For the same molecule, in series [2] (micromolar doses, pladienolide B at nanomolar concentrations), the “hematopoiesis (colony formation)” value is reported as “intact”. Besides, the “T cell apoptosis and activation markers” value in the series on CD5^+ splenic T cells is recorded as “much milder effects”. The “splicing changes in mouse tumor cell lines” value in series [3] was “dramatic changes in both alternative and constitutive splicing”. In series [4], the “histologic inflammation or immune infiltrates in skin, lung, gut, or liver” value was “did not result in overt histologic inflammation”.
`NS(=O)(=O)c1ccc(S(=O)(=O)Nc2cccc3c(Cl)c[nH]c23)cc1` [indisulam]: in the series with OT-1 T cells, the “ability of OT-1 T cells to degranulate intracellular cytolytic molecules” value is listed as “did not inhibit”. For the same molecule, in series [1], the “splicing changes in human cancer cells” value was “stereotyped and pervasive splicing changes”. Moreover, in series [2], the “hematopoiesis (colony formation)” value is given as “intact”. Further, the “T cell apoptosis and activation markers” value in the series with CD5^+ splenic T cells is “much milder effects”. Besides, in the series on CD5^+ splenic T cells (Mus musculus, T-cell, 72 h, three days of continuous drug exposure, read-out: IC50 values, T cell proliferation following stimulation), the IC50 lay in the range of 1 to 10 µM. Besides, in series [3], the “splicing changes in mouse tumor cell lines” value was “dramatic changes in both alternative and constitutive splicing”. Further, the “histologic inflammation or immune infiltrates in skin, lung, gut, or liver” value in series [4] is listed as “did not result in overt histologic inflammation”.
